Patent publication US7897582B2, “Oligonucleotide compositions and methods for the modulation of the expression of B7 protein” (Isis Pharmaceuticals, Inc., priority 2003, dated 2011)
Strand notation (5' to 3'): a small letter for the sugar, then the base; units joined by * are phosphorothioate-linked, units joined directly phosphodiester-linked; [ ] holds rarer units or linkages, { } end groups; capitals alone tell only the bases. e = 2'-O-(2-methoxyethyl) (MOE); [5mC] = 5-methylcytosine; d = 2'-deoxy (DNA)

Columns and labels:
human B7-2 = assay: Cell surface expression of B7-2 in transfected COS-7 cells by flow cytometry; format: cell-based; design: % Control Protein: concentration or dose not given beside the values; conditions: hB7-2 protein, flow cytometry; Table 5
Protocol: A T-175 flask was seeded at 75% confluency with COS-7 cells (ATCC accession No. CRL 1651). The plasmid pcB7-1 was introduced into cells by standard calcium phosphate transfection. Following a 4 hour transfection, the cells were trypsinized and seeded in 12-well dishes at 80% confluency. The cells were allowed to adhere to the plastic for 1 hour and were then washed with phosphate-buffered saline (PBS). OptiMEM™ (GIBCO-BRL, Gaithersburg, Md.) medium was added along with 15 μg/mL of Lipofectin™ (GIBCO-BRL, Gaithersburg, Md.) and oligonucleotide at the indicated concentrations. After four additional hours, the cells were washed with phosphate buffered saline (PBS) and incubated with fresh oligonucleotide at the same concentration in DMEM (Dulbecco et al., Virol., 1959, 8, 396; Smith et al., Virol., 1960, 12, 185) with 10% fetal calf sera (FCS).
In order to monitor the effects of oligonucleotides on cell surface expression of B7-1, treated COS-7 cells were harvested by brief trypsinization 24-48 hours after oligonucleotide treatment. The cells were washed with PBS, then resuspended in 100 μL of staining buffer (PBS, 0.2% BSA, 0.1% azide) with 5 μL conjugated anti-B7-1-antibody (i.e., anti-hCD80-FITC, Ancell, Bayport, Minn.; FITC: fluorescein isothiocyanate). The cells were stained for 30 minutes at 4° C., washed with PBS, resuspended in 300 μL containing 0.5% paraformaldehyde. Cells were harvested and the fluorescence profiles were determined using a flow cytometer.
In an initial screen, the ability of hB7-2 oligonucleotides to inhibit B7-2 expression was evaluated by measuring the cell surface expression of B7-2 in transfected COS-7 cells by flow cytometry. The methods used were similar to those given in Example 2, with the exceptions that (1) COS-7 cells were transfected with the plasmids pbcB7-2 or BBG-58, a human ICAM-1 (CD54) expression vector (R&D Systems, Minneapolis, Minn.) introduced into cells by standard calcium phosphate transfection, (2) the oligonucleotides used were those described in Table 2, and (3) a conjugated anti-B7-2 antibody (i.e., anti-hCD86-FITC or anti-CD86-PE, PharMingen, San Diego, Calif.; PE: phycoerythrin) was used during flow cytometry.
B7 antisense oligonucleotides were tested for their effect on cell surface expression of both B7-1 and B7-2. Cell surface expression was measured as described in Example 1. Experiments were done for both human B7 and mouse B7.
The oligonucleotides were screened as described in Example 2 except that the concentration of oligonucleotide was varied as shown in Table 19.

hB7-2 mRNA = assay: Ribonuclease protection assay of hB7-2 mRNA in transfected COS-7 cells; format: cell-based, human; design: % Control RNA Expression: concentration or dose not given beside the values; conditions: for % Control RNA Expression: hB7-2 mRNA, Table 5
Protocol: For ribonuclease protection assays, cells were harvested 18 hours after completion of oligonucleotide treatment using a Totally RNA™ kit (Ambion, Austin, Tex.). The probes for the assay were generated from plasmids pcB7-2 (linearized by digestion with Bgl II) and pTRI-b-actin (Ambion Inc., Austin, Tex.). In vitro transcription of the linearized plasmid from the SP6 promoter was performed in the presence of α-^32P-UTP (800 Ci/mmole) yielding an antisense RNA complementary to the 3′ end of B7-2 (position 1044-1391). The probe was gel-purified after treatment with DNase I to remove DNA template. Ribonuclease protection assays were carried out using an RPA II™ kit (Ambion) according to the manufacturer's directions. Total RNA (5 μg) was hybridized overnight, at 42° C., with 10^5 cpm of the B7-2 probe or a control beta-actin probe. The hybridization reaction was then treated, at 37° C. for 30 minutes, with 0.4 units of RNase A and 2 units of RNase T1. Protected RNA was precipitated, resuspended in 10 μL of gel loading buffer and electrophoresed on a 6% acrylamide gel with 50% w/v urea at 20 W. The gel was then exposed and the lanes quantitated using a PhosphorImager (Molecular Dynamics, Sunnyvale, Calif.) essentially according to the manufacturer's instructions.
The oligonucleotides were screened as described in Example 4 except that the concentration of oligonucleotide was varied as shown in Table 13. Mismatch control oligonucleotides were included.

Human B7-2 mRNA = Human B7-2 mRNA expression in electroporated THP-1 cells induced with LPS and dibutyryl cAMP; format: cell-based; conditions: THP-1 cells electroporated at 10 micromolar oligonucleotide, LPS and dibutyryl cAMP (500 μM) 16 hours
Source text: The human promonocytic leukaemia cell line, THP-1 (American Type Culture Collection, Manassas, Va.) was maintained in RPMI 1640 growth media supplemented with 10% fetal calf serum (FCS; Life Technologies, Rockville, Md.). A total of 1×10^7 cells were electroporated at an oligonucleotide concentration of 10 micromolar in 2 mm cuvettes, using an Electrocell Manipulator 600 instrument (Biotechnologies and Experimental Research, Inc.) employing 200 V, 1000 μF. Electroporated cells were then transferred to petri dishes and allowed to recover for 16 hrs Cells were then induced with LPS and dibutyryl cAMP (500 μM) for 16 hours. RNA was isolated and processed as described in previous examples.

| Substance | % mRNA EXPRESSION (Human B7-2 mRNA) [%] | % mRNA INHIBITION (Human B7-2 mRNA) [%] | other results |
| --- | --- | --- | --- |
| 10370 (antisense dA*dA*dA*dA*dG*dG*dT*dT*dG*dC*dC*dC*dA*dG*dG*dA*dA*dC*dG*dG) [compound 10370] |  |  | % Control Protein (human B7-2): 84.3%; % Control RNA Expression (hB7-2 mRNA): 83.2% |
| 10371 (antisense dG*dG*dG*dA*dG*dT*dC*dC*dT*dG*dG*dA*dG*dC*dC*dC*dC*dC*dT*dT) [compound 10371] |  |  | % Control Protein (human B7-2): 97.3%; % Control RNA Expression (hB7-2 mRNA): 92.9% |
| 10372 (antisense dC*dC*dA*dT*dT*dA*dA*dG*dC*dT*dG*dG*dG*dC*dT*dT*dG*dG*dC*dC) [compound 10372] |  |  | % Control Protein (human B7-2): 101.7%; % Control RNA Expression (hB7-2 mRNA): 82.5% |
| 10373 (antisense dT*dG*dC*dG*dA*dG*dC*dT*dC*dC*dC*dC*dG*dT*dA*dC*dC*dT*dC*dC) [compound 10373] |  |  | % Control Protein (human B7-2): 43.5%; % Control RNA Expression (hB7-2 mRNA): 32.7%; % mRNA EXPRESSION (hB7-2 mRNA; human B7-2 mRNA, Table 12): 24%; % mRNA INHIBITION (hB7-2 mRNA; human B7-2 mRNA, Table 12): 76% |
| 113131 (antisense e[5mC]*eG*eT*eG*eT*dG*dT*d[5mC]*dT*dG*dT*dG*d[5mC]*dT*dA*eG*eT*e[5mC]*e[5mC]*e[5mC]) [compound 113131] | 13 | 87 |  |
| 113132 (antisense eG*e[5mC]*eT*eG*e[5mC]*dT*dT*d[5mC]*dT*dG*d[5mC]*dT*dG*dT*dG*eA*e[5mC]*e[5mC]*eT*eA) [compound 113132] | 17 | 83 |  |
| 113133 (antisense eT*eA*eT*eT*eT*dG*d[5mC]*dG*dA*dG*d[5mC]*dT*d[5mC]*d[5mC]*d[5mC]*e[5mC]*eG*eT*eA*e[5mC]) [compound 113133] | 214 |  |  |
| 113134 (antisense eG*e[5mC]*eA*eT*eA*dA*dG*d[5mC]*dA*d[5mC]*dA*dG*d[5mC]*dA*dG*e[5mC]*eA*eT*eT*e[5mC]) [compound 113134] | 27 | 73 |  |
| 113135 (antisense eT*e[5mC]*e[5mC]*eA*eA*dA*dA*dA*dG*dA*dG*dA*d[5mC]*d[5mC]*dA*eG*eA*eT*eG*e[5mC]) [compound 113135] | 66 | 34 |  |
| 113136 (antisense eA*eA*eA*eT*eG*d[5mC]*d[5mC]*dT*dG*dT*d[5mC]*d[5mC]*dA*d[5mC]*dT*eG*eT*eA*eG*e[5mC]) [compound 113136] | 81 | 19 |  |
| 113137 (antisense e[5mC]*eT*eT*e[5mC]*eA*dG*dA*dG*dG*dA*dG*d[5mC]*dA*dG*d[5mC]*eA*e[5mC]*e[5mC]*eA*eG) [compound 113137] | 57 | 43 |  |
| 113138 (antisense eG*eA*eA*eT*e[5mC]*dT*dT*d[5mC]*dA*dG*dA*dG*dG*dA*dG*e[5mC]*eA*eG*e[5mC]*eA) [compound 113138] | 12 | 88 |  |
| 113140 (antisense eG*e[5mC]*eT*eT*eT*dG*dG*dT*dT*dT*dT*dG*dA*dG*dA*eG*eT*eT*eT*eG) [compound 113140] | 214 |  |  |
| 113141 (antisense eA*eG*eG*e[5mC]*eT*dT*dT*dG*dG*dT*dT*dT*dT*dG*dA*eG*eA*eG*eT*eT) [compound 113141] | 126 |  |  |
| 113142 (antisense eG*e[5mC]*eT*e[5mC]*eA*d[5mC]*dT*d[5mC]*dA*dG*dG*d[5mC]*dT*dT*dT*eG*eG*eT*eT*eT) [compound 113142] | 35 | 65 |  |
| 113143 (antisense eG*eG*eT*e[5mC]*e[5mC]*dT*dG*d[5mC]*d[5mC]*dA*dA*dA*dA*dT*dA*e[5mC]*eT*eA*e[5mC]*eT) [compound 113143] | 118 |  |  |
| 113144 (antisense eA*eG*e[5mC]*e[5mC]*e[5mC]*dT*dT*dG*dT*d[5mC]*d[5mC]*dT*dT*dG*dA*eT*e[5mC]*eT*eG*eA) [compound 113144] | 41 | 59 |  |
| 113145 (antisense eT*eG*eT*eG*eG*dG*d[5mC]*dT*dT*dT*dT*dT*dG*dT*dG*eA*eT*eG*eG*eA) [compound 113145] | 46 | 54 |  |
| 113146 (antisense eA*eA*eT*e[5mC]*eA*dT*dT*d[5mC]*d[5mC]*dT*dG*dT*dG*dG*dG*e[5mC]*eT*eT*eT*eT) [compound 113146] | 32 | 68 |  |
| 113147 (antisense e[5mC]*e[5mC]*eG*eT*eG*dT*dA*dT*dA*dG*dA*dT*dG*dA*dG*e[5mC]*eA*eG*eG*eT) [compound 113147] | 35 | 65 |  |
| 113148 (antisense eA*e[5mC]*e[5mC]*eG*eT*dG*dT*dA*dT*dA*dG*dA*dT*dG*dA*eG*e[5mC]*eA*eG*eG) [compound 113148] | 23 | 77 |  |
| 113149 (antisense eT*e[5mC]*eA*eT*e[5mC]*dT*dT*d[5mC]*dT*dT*dA*dG*dG*dT*dT*e[5mC]*eT*eG*eG*eG) [compound 113149] | 29 | 71 |  |
| 113150 (antisense eA*e[5mC]*eA*eA*eG*d[5mC]*dT*dG*dA*dT*dG*dG*dA*dA*dA*e[5mC]*eG*eT*e[5mC]*eG) [compound 113150] | 19 | 81 |  |
| 113151 (antisense eT*eG*e[5mC]*eT*e[5mC]*dG*dT*dA*dA*d[5mC]*dA*dT*d[5mC]*dA*dG*eG*eG*eA*eA*eT) [compound 113151] | 208 |  |  |
| 113152 (antisense eA*eA*eG*eA*eT*dG*dG*dT*d[5mC]*dA*dT*dA*dT*dT*dG*e[5mC]*eT*e[5mC]*eG*eT) [compound 113152] | 89 | 11 |  |
| 113153 (antisense e[5mC]*eG*e[5mC]*eG*eT*d[5mC]*dT*dT*dG*dT*d[5mC]*dA*dG*dT*dT*eT*e[5mC]*e[5mC]*eA*eG) [compound 113153] | 19 | 81 |  |
| 113154 (antisense e[5mC]*eA*eG*e[5mC]*eT*dG*dT*dA*dA*dT*d[5mC]*d[5mC]*dA*dA*dG*eG*eA*eA*eT*eG) [compound 113154] | 63 | 37 |  |
| 113155 (antisense eG*eG*eG*e[5mC]*eT*dT*d[5mC]*dA*dT*d[5mC]*dA*dG*dA*dT*d[5mC]*eT*eT*eT*e[5mC]*eA) [compound 113155] | 13 | 87 |  |
| 113156 (antisense e[5mC]*eA*eT*eG*eT*dA*dT*d[5mC]*dA*d[5mC]*dT*dT*dT*dT*dG*eT*e[5mC]*eG*e[5mC]*eA) [compound 113156] | 83 | 17 |  |
